From article PMC6600523, “Interference with Amyloid-β Nucleation by Transient Ligand Interaction” (Molecules, 2019)
Like-named read-outs stand apart in the source and are kept apart here. Where a SMILES comes first, the peptide text is derived from it. [ ]: non-standard residue; d: D form.

How the values were obtained:
[1] = biological target: T1, Aβ42 (Homo sapiens, UniProt P05067); assay: ThT assay, fibrillation kinetics of Aβ42; type: biochemical; settings: 50 mM NaCl pH 7.4, 20 °C, AmyloFit fit, triplicate
T1 construct: purchased Bachem H-1368.1000
T1 sequence (P05067 672-713 limits assumed): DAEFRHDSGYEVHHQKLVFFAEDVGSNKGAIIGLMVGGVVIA
Description: ThT was added at a final concentration of 5 μM in all samples. The final volume of each sample was 200 μL. Samples were prepared on ice and were pipetted into a 96-well plate afterwards. The plate was sealed with a microplate sealing film. All measurements were conducted at 20 °C with a microplate reader (Infinite M200, Tecan, Männedorf, Switzerland). The fluorescence was recorded at an excitation wavelength (λex) of 445 nm and an emission wavelength (λem) of 485 nm every 30 min for 120 h. […] All samples were prepared in triplicate.
The ThT data was then subjected to the online server AmyloFit with a customized sigmoidal Equation (1) to determine the lag time tlag , and the half completion time of the aggregation process t1/2 , according to previous studies. (1) It=k0t+A/1+exp−kt−t1/2, where k0 represents the slope of the baseline, A is the amplitude, k denotes the apparent elongation rate constant. The lag time tlag can be derived from the intercept between the time axis and the tangent with slope k from the midpoint of the fitted sigmoidal curve, which is given by the following Equation (2):(2) tlag=t1/2−2/k

[2] = biological target: T1, Aβ42; assay: Atomic force microscopy, morphologies of Aβ42 samples; type: biochemical; settings: 20 mM sodium phosphate, 50 mM NaCl pH 7.4, 20 °C, AFM in air, AC mode
Description: At 48 h and 120 h, 10 μL samples were pipetted onto freshly cleaved mica, and were further incubated at room temperature for 30 min. Mica with deposited samples were rinsed with ultrapure water for three times and finally dried with nitrogen gas. Atomic force microscopy (AFM) imaging was carried out in air at room temperature, using silicon cantilevers (OMCL AC160 TS, Olympus, Tokyo, Japan) and a JPK NanoWizard 3 microscope (JPK Instruments AG, Berlin, Germany) in AC mode. The nominal tip diameter of the cantilever was 7 nm. AFM height images at 10 × 10 μm^2 and 1 × 1 μm^2 (both with a resolution of 1024 × 1024 pixel) for all samples were taken with a line rate of 1 Hz and respective scanning speeds of 22.55 μm/s and 2.48 μm/s. Data was processed with JPK NanoWizard SPM data processing software.

[3] = biological target: T2, FITC-Aβ42 (Homo sapiens, UniProt P05067); assay: Microscale thermophoresis, D3 titrated to FITC-Aβ42; type: binding
T2 construct: purchased Bachem M-2585.1000
T2 sequence (P05067 672-713 limits assumed): as above
Description: In detail, FITC-Aβ42 was dissolved in 20 mM sodium phosphate, 50 mM NaCl (pH 7.4—slightly alkali), 0.01% (v/v) Tw20 to obtain 80 nM stock solutions. 300 μM D3 was prepared in the same buffer. FITC-Aβ42 was then titrated with D3 solutions in 1:1 serial dilution steps to prepare 16 samples, in which the concentration of FITC-Aβ42 was kept constant at 40 nM, and the starting concentration of D3 was 150 μM. Samples were loaded into standard capillaries, and the thermophoresis was detected using a Monolith NT.115 (NanoTemper Technologies GmbH, Munich, Germany). The experiment was performed with 40% LED power and 60% microscale thermophoresis (MST) power. […] The final concentration of FITC-D3 in each sample was set to 40 nM. The LED power and MST power were adjusted to 30% and 60%, respectively. The on and off time for the IR laser was set to 30 s and 5 s. Since the working concentration of labeled molecules was rather low in this measurement, any signal loss due to surface adsorption might bias the data acquisition. Therefore trace amounts of Tw20 and PEI were used as additives in solution to minimize the unspecific surface adsorption of FITC-Aβ42 and FITC-D3 in capillaries, respectively. All measurements were conducted at 22 °C, and samples were prepared in triplicate.
The data was evaluated with PALMIST software (version 1.2.3) to obtain the dissociation constants. Changes in the normalized fluorescence ( ∆Fn ) with concentrations of the titrant were quantified and fitted with the 1:1 binding model available in the software using a 68.3% confidence interval. The graphic outputs were created using GUSSI (version 1.2.1).

[4] = biological target: T1, Aβ42; assay: Sedimentation velocity AUC with fluorescence detection, Aβ42 and D3 mixtures; type: binding; settings: 0.33 μM FITC-Aβ42 with various D3 concentrations; 55 mM Tris-HCl, 50 mM NaCl pH 7.4, 0.01% Tw20; D3 concentration-dependent
Description: All measurements were performed using an XL-A analytical ultracentrifuge (Beckman coulter, Brea, CA, USA). […] All samples were prepared in 20 mM sodium phosphate, 50 mM NaCl (pH 7.4) containing 0.0004% PEI (w/v). Samples were then loaded into 3-mm double-sector titanium cells (Nanolytics, Potsdam, Germany), with each sector containing a 100 μL sample. The detection system uses an excitation laser at 488 nm and an emission cut-off filter at 505 nm to collect fluorescence signals. The amplification factor was adjusted to the same value for all samples for comparability. […] Data was acquired at 20 nm radial resolution. After thorough thermal equilibration the centrifugation was carried out at 60,000 rpm (289,000× g) at 20 °C for 15 h. Carrier proteins, such as albumin and kappa casein, are usually recommended to minimize unspecific surface adsorption for fluorescence-based AUC [56]. All sedimentation profiles were subjected to the software package SEDFIT (version 15.01b) for data evaluation. The data was analyzed with the continuous distribution c(s) Lamm equation model to obtain the sedimentation coefficient distributions. Fitting parameters (Table S1) including the buffer density and viscosity were determined using Sednterp (version 20130813BETA). […] Final graphs were generated using GUSSI (version 1.2.1) and sedimentation coefficients were standardized to s-values in pure water at 20 °C (s20,w).

[5] = biological target: T1, Aβ42; assay: Seeding experiment, ThT kinetics of seeded Aβ42; type: biochemical; settings: 20 mM sodium phosphate, 50 mM NaCl pH 7.4, 20 °C
Description: The sample was then incubated quiescently at room temperature for 120 h. […] Samples were pipetted to a 96-well plate, with each well containing 200 μL samples. The plate was then covered with a sealing film. ThT fluorescence of all samples was recorded using the same device and parameters, as described above for ThT assays. All samples were prepared in duplicate. Final data was normalized and averaged based on the repetitions.

[6] = 20 μM Aβ42 with (label D3) or without (label Aβ42) 2 μM D3, 20 mM sodium phosphate, 5 μM ThT
[7] = 20 μM Aβ42 with (label D3, 10:1) or without (label Aβ42) 2 μM D3, 55 mM Tris-HCl

CC(C)C[C@@H](NC(=O)[C@@H](CCCNC(=N)N)NC(=O)[C@H](NC(=O)[C@@H](CCCNC(=N)N)NC(=O)[C@H]1CCCN1C(=O)[C@H](N)CCCNC(=N)N)[C@H](C)O)C(=O)N[C@H](Cc1c[nH]cn1)C(=O)N[C@@H](C(=O)N[C@H](Cc1c[nH]cn1)C(=O)N[C@H](CCCNC(=N)N)C(=O)N[C@H](CC(N)=O)C(=O)N[C@H](CCCNC(=N)N)C(N)=O)[C@H](C)O [D3] (H-[dR][dP][dR][dT][dR][dL][dH][dT][dH][dR][dN][dR]-NH2)
Half completion time t1/2 of fibrillation kinetics [1, 6]: 79.3 ± 2.3 h | Lag time tlag of fibrillation kinetics [1, 6]: 67.6 ± 3.8 h | Slope k of fibrillation kinetics [1, 6]: 0.18 ± 0.07 | Half completion time t1/2 of fibrillation kinetics, Tris-HCl buffer [1, 7]: 74.5 ± 2.8 h | Lag time tlag of fibrillation kinetics, Tris-HCl buffer [1, 7]: 59.3 ± 2.2 h | Slope k of fibrillation kinetics, Tris-HCl buffer [1, 7]: 0.14 ± 0.04 | Morphology of Aβ42 incubated with D3, 48 h ([2]; 40 μM Aβ42 with 4 μM D3 (0.1 equimolar), 48 h): no fibrils | Morphology of Aβ42 incubated with D3, 120 h ([2]; 40 μM Aβ42 with 4 μM D3, 120 h): did not stop the fibril formation | Kd ([3]; KD for D3 and Aβ42 (summary of both MST setups), both possible setups): ~400 nM | Kd ([3]; MST, 40 nM FITC-Aβ42, D3 from 150 μM in 1:1 serial dilution, 20 mM sodium phosphate, 50 mM NaCl pH 7.4, 0.01% Tw20, 22 °C, 1:1 binding model (PALMIST), brackets = 68.3% confidence interval, triplicate, read-out: KD of D3 binding to FITC-Aβ42): 270 nM | Kd ([3]; MST, 40 nM FITC-Aβ42, 5 mM sodium phosphate, 50 mM NaCl pH 7.4, 0.01% Tw20, 22 °C, 1:1 binding model, brackets = 68.3% confidence interval, read-out: KD of FITC-Aβ42 and D3 in low ionic strength buffer): 88 nM | s20,w of new species formed on incubating D3 with FITC-Aβ42 [4]: 1.54 ± 0.11 S | Effect on ThT kinetics of Aβ42 with 1% seeds ([5]; 10 μM Aβ42, 1% seeds, 1 μM D3, compared with Aβ42 without D3): longer lag phase | Effect on ThT kinetics of Aβ42 with 5% seeds ([5]; 10 μM Aβ42, 5% seeds, 1 μM D3 (0.1-fold), slopes compared with Aβ42 with 5% seeds only): retardation of the elongation process
